Values of other authors in patent US20090017120A1, “Phase stable lecithin organogel composition” (Humco Holding Group, Inc., priority 2007, published 2009).

Details: 20% wt/vol pluronic gels, pH 7, 20° C.

time to 10% indomethacin degradation: 2.7 years
SMILES: COc1ccc2c(c1)c(CC(=O)O)c(C)n2C(=O)c1ccc(Cl)cc1 [indomethacin]
